Experimental findings from US8129037B2, “Phenanthrene derivative” (priority 2005, dated 2012) are described below.

This data set is described as follows: Solubility comparison in common organic solvents. Type of data set: physicochemical. To be noted: qualitative. The source says:
In contrast, phenanthrenes which are structurally analogous but unsubstituted in the 9- and 10-position have distinctly poorer solubility in organic solvents. This leads to considerable problems in the purification, since substantially larger apparatus and distinctly larger amounts of solvent are required for this purpose.

`Cc1ccc(-c2ccc3c(c2)c(C)c(C)c2cc(-c4ccc(C)c5ccccc45)ccc23)c2ccccc12` [Example P1]: the “Solubility in common organic solvents” value is given as “moderate to good”.
